Results on one compound are retold here after patent US7462324B2, “Measurement device and method for measuring electric signal from biological sample” (Panasonic Corporation, priority 2002, dated 2008).

The assay concerns rat artery smooth muscles (SM). Put plainly: Intracellular potential of a rat artery smooth muscle cell on carbachol administration, voltage clamp with measurement device 10. Type of assay: cell-based. As to the method:
As the biological sample 21, rat artery smooth muscles (SM) were used. As a solution to be injected into the measurement device 10, DMEM culture medium to which 10% FBS (fetal bovine serum) was added was used. An SM cell was inserted into the microelectrode 1 by performing the same operation as that of EXAMPLE 2, and then an intracellular potential when 100 μM carbachol, which was an analog of acetylcholine, was introduced as a solution was measured by a voltage clamp method.
The results were similar to those obtained by the known intracellular recording method.
FIG. 13 is a histogram of standard deviation per 10 ms before and after a carbachol administration. The mean value and half width of the graph, obtained by approximating the histogram before and after a carbachol administration with a normal distribution are 0.185 and 0.04, respectively, before the administration and 0.545 and 0.21, respectively, after the administration. […] The reason for the increase was that by the administration of carbachol, ion channels of the […] was activated, and changes in conductance due to switching of the activated ion channels is expressed by voltage change. From FIG. 13, it was confirmed that with the measurement device 10, ion channel properties for a nerve stimulator can be determined as in the same manner in the known intracellular recording method.

With `C[N+](C)(C)CCOC(N)=O` [carbachol], the “action potential in response to carbachol” value (100 μM carbachol introduced as a solution, SM cell on microelectrode, DMEM + 10% FBS, FIG. 12) was “detected”. The “mean value of histogram of standard deviation per 10 ms of the action potential (normal distribution approximation)” value (after carbachol administration (100 μM), before administration 0.185, FIG. 13) was 0.545.
